From US10328092B2, “Methods and compositions for treatment of drug addiction” (The Royal Institution for the Advancement of Learning / …, priority 2015, dated 2019)

Tested on: adult microglial cells
Assay: TNFα mRNA in cultured adult mouse microglia
Format: cell-based
Conditions: cocaine 1 μm, 3 hours
Protocol: (SEQ ID NO: 1) [200 nM]; mouse TNFα reverse, […] (SEQ ID NO: 2) [200 nM]; mouse GAPDH forward, […] (SEQ ID NO: 3) [300 nM]; mouse GAPDH reverse, […] (SEQ ID NO: 4) [300 nM]; rat TNFα forward, […] (SEQ ID NO: 1) [600 nM]; rat TNFα reverse, […] (SEQ ID NO: 5) [600 nM]; rat cyclophilin forward, […] (SEQ ID NO: 6) [500 nM]; rat cyclophilin reverse, […] (SEQ ID NO: 7) [500 nM]. After 40 cycles, the Ct values were determined.
Adult male C57BL/6 mice (8-12 weeks) underwent cardiac perfusion with Hank's Balanced Salt Solution (HBSS) and whole brains were removed. Cortices and striata were dissected, cut in to small pieces and subjected to enzymatic digestion with the Neural Tissue Dissociation Kit (P) (Miltenyi Biotech, US cat no. 130-092-628), as per manufactures instructions. Tissue was homogenised and resuspended in 35% isotonic Percoll, overlayed with HBSS and spun at 400 g for 45 mins for the removal of myelin. Pure populations of microglial cells were obtained through magnetic bead cell sorting using CD11b microbeads (Miltenyi, cat no. 130-093-634). Aliquots from positive and negative bead selected fractions were removed for cell staining to assess cell purity. […] Cells were acquired using a BD FACS Canto II and analyzed using BD FACSDiva software. […]

## COC(=O)[C@H]1[C@@H](OC(=O)c2ccccc2)C[C@@H]2CC[C@H]1N2C [cocaine]
  TNFα mRNA, cultured adult microglia: 95 % of control
